“Also recorded” adds a separate entry of the source.
What was measured:
[1] = test system: Aggregibcater actynomycetemcomitans; assay: Biofilm MBEC; format: cell-based, Aggregibcater actynomycetemcomitans (ATCC 43717); details: Compound A alone
Description: (§1) MBEC is defined as the minimum concentration of test compound that inhibits growth of the biofilm. The recovery plate prepared according to the description above was incubated at 37° C. for 24 hours and read visually to determine MBEC values. A microtiter plate reader was used to obtain optical density measurements at 630 nm (OD630). Clear wells (OD630<0.1) ware evidence of biofilm eradication.

Porphyromonas gingivalis [2] = assay: Planktonic minimum bactericidal concentration (MBC); format: cell-based, Porphyromonas gingivalis (ATCC 33277); details: Compound A alone; 24 hours contact
Description: (§2) After the specified contact time (24 hours), 20 μL from each well of the challenge plate were removed and placed into the corresponding wells of a fresh 96 well Nunc plate containing 180 μL OSM. The plate was incubated at 37° C. for 24 hours.

[3] = test system: Aggregibcater actynomycetemcomitans; assay: Growth inhibition, LOG10 reduction; format: cell-based, Aggregibcater actynomycetemcomitans (ATCC 43717)
Description: (§3) Using a cryogenic stock (at −70° C.), a first sub-culture of the bacterial organisms listed above was streaked out on an organism specific agar (OSA). The bacterium was incubated at appropriate growth conditions for 24-48 hours and the plate was stored wrapped in parafilm at 4° C. for the aerobic strain (Aggregibcater actynomycetemcomitans) and 21° C. in the anaerobic chamber for anaerobic strain (Porphyromonas gingivalis). From the first sub-culture, a second sub-culture was streaked out on OSA. It was incubated at appropriate growth conditions for 24-48 hours. The second sub-culture was used within 24 hours starting from the time it was first removed from incubation. Using the second sub-culture, an isolated colony was aseptically removed from the OSA plate and inoculated into 100 mL of sterile bacterial liquid growth broth. The latter was incubated at 150 rpm at appropriate growth conditions for 24-24 hour. This yielded a viable bacterial density of approximately 10^9 CFU/mL and was checked by serial dilution and plating. The inoculum was adjusted to an approximate cell density of 10^6 CFU/mL by diluting in organism specific broth (OSB). The diluted organism was vortexed for approximately 10 seconds to achieve uniform mixing of the organism. One sample (100 μL) of the diluted organism was used for an inoculum check by serially diluting and spot plating on OSA in triplicate. It should be noted that for the anaerobic microorganism, growth, sonication, serial dilution, transfer and recovery of the organism was performed under anaerobic conditions (5% H2, 10% CO2, 85% N2).
(§4) Biofilms were tested using the specified contact times. Callenge plates were used for testing the killing activity of the tested biocidic compounds on formed biofilm and other plates to test the inhibitory effect of biofilm formation. SC wells served as sterility controls for each experiment. One challenge plate was used per growth condition and challenge time. GC is the growth control. GCh is the biofilm Growth Check.
(§5) Using a sterile 96-well microtitre plate the following was done aseptically to set up the above challenge plates. 200 μL of sterile OSM was added to wells that served as the device sterility control for the media and for biofilm growth checks. 200 μL of sterile neutralizer was added to wells that served as the neutralizer toxicity control. 100 μL of the neutralizer and 100 μL of each of the tested compounds or combinations were added to wells serving as neutralizer affectivity control. 200 μL of biocide stock solution was added to wells which served as the biocide diluent sterility control. Serial dilutions of the tested compounds and combinations in the diluents (OSM) were performed. Each freshly prepared challenge plate was aseptically covered and left to stand at room temperature for 30 minutes to equilibrate prior to use.
(§6) Following sonication of all plates, 100 μL was placed from each well of the MBEC™ plate into the first 12 empty wells of the first row of a 96 well-micro titer plate. 180 μL of sterile 0.9% saline were placed in the remaining rows. A Serial dilution (10^0-10^−7) was performed by moving 20 μL down each of the 8 rows. 10 μL were removed from each well and spot plated on prepared OSA plates. Plates were incubated at 37±1° C. and counted after approximately 24-48 hours of incubation. The data obtained was evaluated as Log 10 CFU/peg. 100 μL of the sterile neutralizer were placed in each well of the recovery plate to top up the volume back to 200 μL.
(§7) LOG10 Reduction=Mean LOG10 Growth Control−Mean LOG10 Test.

[4] = test system: Aggregibcater actynomycetemcomitans; assay: Pre-formed biofilm challenge, MBEC P&G assay, LOG10 reduction; format: cell-based, Aggregibcater actynomycetemcomitans (ATCC 43717)
Description: (§8) Sterile MBEC™ P&G plates coated with Hydroxyapatite were used for biofilm growth. The plates consist of plastic lids with 96 protruding polystyrene pegs that have each been coated with hydroxyapatite and a corresponding 96 well base into which the inoculum is placed. The bacterial inoculum for each plate is 150 μL in each well (Innovotech Inc., Edmonton, Alberta, Canada).
as §3
(§9) Each bacterial over-night culture was diluted 1,000× in its specific OSM. Using a micro pipette, 150 μL of inoculum was added to the appropriate wells of a 96 well plate, except for wells that served as sterility controls (SC). Sterility control wells received sterile OSB. The HA MBEC™ P&G lid was then inserted into the 96-well bottom. It should be noted that the volume of inoculum used in this step has been calibrated such that the biofilm covers a surface area that is immersed, entirely, by the volume of antimicrobials used in the challenge plate set up. The device was placed on the gyrorotary shaker in a humidified incubator and incubated at 110 rpm at the appropriate growth conditions. Porphyromonas gingivalis was incubated for 24 hours, and Aggregibcater actynomycetemcomitans was incubated for 48 hours. A triplicate sample of the inoculum was serially diluted (ten-fold). The latter served as controls used to verify the starting cell number in the inoculum. The serial 10-fold dilutions of the inoculum from 10^−7 to 10^0 were spot plated on an appropriately labeled series of agar plates. The spot plates were incubated for an appropriate period of time and scored for growth.
(§10) The biofilm growth check (GCh) pegs were broken off from the challenge plate with flamed pliers. Each peg was placed into 200 μL of neutralizer in row A of serial dilution plate. The plates were sonicated for 30 minutes. Then serial dilution and spot plating on OSA was performed, which served as a biofilm growth check.
(§11) Biofilms were tested using the specified contact times. Callenge plates were used for testing the killing activity of the tested biocidic compounds on formed biofilm and other plates to test the inhibitory effect of biofilm formation. SC wells served as sterility controls for each experiment. One challenge plate was used per growth condition and challenge time. GC is the growth control. GCh is the biofilm Growth Check. […]

Porphyromonas gingivalis [5] = assay: as above; format: cell-based, Porphyromonas gingivalis (ATCC 33277)
Description: as §8, §3, §9, §10, §11

Porphyromonas gingivalis [6] = assay: Planktonic MIC; format: cell-based, Porphyromonas gingivalis (ATCC 33277); details: Compound A alone; 24 hours
Description: (§12) The MIC (minimum inhibitory concentration) for the compound was determined for each organism shed from the biofilm during the challenge incubation. The MIC was defined as the minimum concentration that inhibits growth of the organism.

[7] = test system: Aggregibcater actynomycetemcomitans; assay: Planktonic minimum bactericidal concentration (MBC); format: cell-based, Aggregibcater actynomycetemcomitans (ATCC 43717); details: Compound A alone; 24 hours contact
Description: as §2

Porphyromonas gingivalis [8] = assay: Biofilm MBEC; format: cell-based, Porphyromonas gingivalis (ATCC 33277); details: Compound A alone
Description: as §1

Porphyromonas gingivalis [9] = assay: Growth inhibition, LOG10 reduction; format: cell-based, Porphyromonas gingivalis (ATCC 33277)
Description: as §3, §4, §5, §6, §7

[10] = test system: Aggregibcater actynomycetemcomitans; assay: Planktonic MIC; format: cell-based, Aggregibcater actynomycetemcomitans (ATCC 43717); details: Compound A alone; 24 hours
Description: as §12

[11] = Compound A, all tested concentrations

`CC(=O)N[C@@H](CS)C(=O)O` [Compound A, N-acetyl cysteine] was tested, and the “MBEC Cut-off, A.a.” value [1] was >20%, the “MBC Cut-off, P. gingivalis” value (Porphyromonas gingivalis [2]) was >20% and the “Log Reduction, Growth Inhibition, A.a.” value ([3]; Compound A 0.15%) was 0.24 log. For the same compound, the “Log Reduction, Growth Inhibition, A.a.” value ([3]; Compound A 0.31%) was 0.28 log, the “Log Reduction, Growth Inhibition, A.a.” value ([3]; Compound A 0.62%) was 0.74 log and the “Log Reduction, Growth Inhibition, A.a.” value ([3]; Compound A 1.25%) was 1.04 log. The “Log Reduction, Growth Inhibition, A.a.” value ([3]; Compound A 2.50%) was 1.13 log, the “Log Reduction, Growth Inhibition, A.a.” value ([3]; Compound A 5%) was 2.05 log and the “Log Reduction, Growth Inhibition, A.a.” value ([3]; Compound A 10%) was 6.34 log. For the same compound, the “Log Reduction, Growth Inhibition, A.a.” value ([3]; Compound A 20%) was 6.34 log, the “Inhibiting growth of A.a. (in words)” value ([3]; Compound A, only at 20% and 10% of the stock concentration) was “effective at inhibiting growth” and the “Log Reduction, Biofilm, A.a.” value ([4]; Compound A 0.15%) was 0.51 log. For the same compound, the “Log Reduction, Biofilm, A.a.” value ([4]; Compound A 0.31%) was −0.02 log, the “Log Reduction, Biofilm, A.a.” value ([4]; Compound A 0.62%) was 0.23 log and the “Log Reduction, Biofilm, A.a.” value ([4]; Compound A 1.25%) was 0.36 log. For the same compound, the “Log Reduction, Biofilm, A.a.” value ([4]; Compound A 2.50%) was −0.01 log, the “Log Reduction, Biofilm, A.a.” value ([4]; Compound A 5%) was 0.39 log and the “Log Reduction, Biofilm, A.a.” value ([4]; Compound A 10%) was 3.02 log. For the same compound, the “Log Reduction, Biofilm, A.a.” value ([4]; Compound A 20%) was 3.25 log, the “Log Reduction, Biofilm, P. gingivalis” value (Porphyromonas gingivalis [5]; Compound A 0.15%) was 0.11 log and the “Log Reduction, Biofilm, P. gingivalis” value (Porphyromonas gingivalis [5]; Compound A 0.31%) was 0.07 log. For the same compound, the “Log Reduction, Biofilm, P. gingivalis” value (Porphyromonas gingivalis [5]; Compound A 0.62%) was −0.07 log, the “Log Reduction, Biofilm, P. gingivalis” value (Porphyromonas gingivalis [5]; Compound A 1.25%) was −0.18 log and the “Log Reduction, Biofilm, P. gingivalis” value (Porphyromonas gingivalis [5]; Compound A 2.50%) was 0.13 log. For the same compound, the “Log Reduction, Biofilm, P. gingivalis” value (Porphyromonas gingivalis [5]; Compound A 5%) was −0.18 log, the “Log Reduction, Biofilm, P. gingivalis” value (Porphyromonas gingivalis [5]; Compound A 10%) was −0.17 log and the “Log Reduction, Biofilm, P. gingivalis” value (Porphyromonas gingivalis [5]; Compound A 20%) was 0.13 log. For the same compound, the “Reducing preformed biofilm of P. gingivalis (in words)” value (Porphyromonas gingivalis [5]; [11]) was “ineffective; also recorded: No inhibition or biofilm reduction”, the “MIC Cut-off, P. gingivalis” value (Porphyromonas gingivalis [6]) was >20% and the “MBC Cut-off, A.a.” value [7] was >20%. For the same compound, the “MBEC Cut-off, P. gingivalis” value (Porphyromonas gingivalis [8]) was >20%, the “Log Reduction, Growth Inhibition, P. gingivalis” value (Porphyromonas gingivalis [9]; Compound A 0.15%) was −0.89 log and the “Log Reduction, Growth Inhibition, P. gingivalis” value (Porphyromonas gingivalis [9]; Compound A 0.31%) was −0.05 log. The “Log Reduction, Growth Inhibition, P. gingivalis” value (Porphyromonas gingivalis [9]; Compound A 0.62%) was 0.35 log, the “Log Reduction, Growth Inhibition, P. gingivalis” value (Porphyromonas gingivalis [9]; Compound A 1.25%) was 0.44 log and the “Log Reduction, Growth Inhibition, P. gingivalis” value (Porphyromonas gingivalis [9]; Compound A 2.50%) was 0.11 log. The “Log Reduction, Growth Inhibition, P. gingivalis” value (Porphyromonas gingivalis [9]; Compound A 5%) was −0.19 log, the “Log Reduction, Growth Inhibition, P. gingivalis” value (Porphyromonas gingivalis [9]; Compound A 10%) was −0.71 log and the “Log Reduction, Growth Inhibition, P. gingivalis” value (Porphyromonas gingivalis [9]; Compound A 20%) was 0.36 log. For the same compound, the “Inhibiting growth of P. gingivalis (in words)” value (Porphyromonas gingivalis [9]; [11]) was “ineffective; also recorded: No inhibition” and the “MIC Cut-off, A.a.” value [10] was 10%.

Source: patent US20160279043A1, “COMBINATIONS OF N-ACETYL CYSTEINE DERIVATIVES AND CRANBERRY POLYPHENOLS IN COMPOSITIONS AND METHODS FOR PREVENTING AND TREATING PERIODONTAL DISEASES AND PERI-IMPLATITIS” (DENTALMED PHARM HOLDING LTD., priority 2013, published 2016)
